Experimental data published in article PMC9576799, “Discovery of small molecule inhibitors that effectively disrupt IQGAP1-Cdc42 interaction in breast cancer cells” (Scientific Reports, 2022).

Experiments:
[1] = molecular target: T1, GST-IQGAP1-C / His-Cdc42-Q61L (Homo sapiens, UniProt P46940); experiment: HTRF IQGAP1-Cdc42 binding assay (validation / confirmatory); details: 50 nM His-Cdc42-Q61L, 1.5 nM GST-IQGAP1-C
T1 construct: the C-terminal half of IQGAP1 (comprising amino acids 864–1657) containing a GST-tag; made in house; host or cells: Escherichia coli (BL-21 for GST-IQGAP1-C)
T1 sequence (P46940 864-1657): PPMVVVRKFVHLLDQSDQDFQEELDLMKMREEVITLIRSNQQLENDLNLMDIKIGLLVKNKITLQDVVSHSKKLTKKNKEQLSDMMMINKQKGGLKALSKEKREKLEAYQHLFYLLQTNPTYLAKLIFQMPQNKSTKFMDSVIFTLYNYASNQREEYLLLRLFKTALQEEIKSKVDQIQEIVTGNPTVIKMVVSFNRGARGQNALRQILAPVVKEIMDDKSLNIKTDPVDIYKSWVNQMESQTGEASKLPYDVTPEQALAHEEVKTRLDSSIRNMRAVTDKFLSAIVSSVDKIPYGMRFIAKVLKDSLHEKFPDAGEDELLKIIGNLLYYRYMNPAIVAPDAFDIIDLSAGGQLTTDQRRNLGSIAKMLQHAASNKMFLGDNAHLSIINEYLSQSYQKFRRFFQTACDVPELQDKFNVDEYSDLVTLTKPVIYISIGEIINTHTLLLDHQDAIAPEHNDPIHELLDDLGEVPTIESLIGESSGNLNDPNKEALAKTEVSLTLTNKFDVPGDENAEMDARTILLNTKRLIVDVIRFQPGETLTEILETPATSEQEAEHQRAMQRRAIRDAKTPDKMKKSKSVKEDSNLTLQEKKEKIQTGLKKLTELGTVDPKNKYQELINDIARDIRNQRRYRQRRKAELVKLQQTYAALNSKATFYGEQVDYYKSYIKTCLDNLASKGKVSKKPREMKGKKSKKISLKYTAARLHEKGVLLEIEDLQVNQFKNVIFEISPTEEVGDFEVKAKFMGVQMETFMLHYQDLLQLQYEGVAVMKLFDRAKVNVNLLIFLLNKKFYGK
Protocol: Recombinant His-Cdc42-Q61L, GST-IQGAP1-C in combination with acceptor XL665 conjugated anti-His antibody (Anti-His-XL665) and donor Eu-cryptate conjugated anti-GST antibody (anti-GST-cryptate) were used for the HTRF assay to perform a high throughput screening of compound libraries in 1536-well white solid bottom medium-binding plates (Greiner Bio-One).
For the assay, His-Cdc42-Q61L and GST-IQGAP1-C proteins were diluted and pre-mixed in the binding buffer (50 mM Tris, pH 7.5, 150 mM NaCl and 0.01% Triton-X100) to final assay concentrations of 50 nM His-Cdc42-Q61L and 1.5 nM GST-IQGAP1-C. As control, 1.5 nM GST-IQGAP1-C in the absence of His-Cdc42-Q61L was used to gauge the maximal potential inhibition (IC100). Anti-His-XL665 and anti-GST-cryptate antibodies were prepared as threefold concentrated working mixture in binding buffer just prior to dispensing, with final assay concentrations of 5 ng/μL and 0.7 ng/µL, respectively. Pre-mixed proteins (4 µL/well) were dispensed to assay plates with a BioRAPTR FRD™ dispenser. […] The signal was detected immediately with an Envision plate reader (Perkin Elmer) using the HTRF settings (excitation at 340 nm, dual emission at 665 nm and 620 nm). […] The data were calculated as the ratio 665/620 × 10^4 to normalize for any effects in the donor channel. […]

[2] = tested on: filopodia in MDA-MB-231 cells; experiment: Filopodia quantification by confocal microscopy (FiloQuant); assay type: cell-based, human; details: 50 μM 2 h, EGF-stimulated
Protocol: MDA-MB231 cells were cultured in 24-well plates containing glass coverslips. When 60% confluent, cells were serum starved for 16 h, preincubated with 50 μM compound NCGC00131308 for 2 h, then incubated with 100 ng/mL epidermal growth factor (EGF) or vehicle for 10 min. Cells were fixed with 4% PFA and stained with Alexa Fluor 488 Phalloidin (Invitrogen™#A12379) and Hoechst 33342 (BD Biosciences #561908) to visualize F-actin and DNA, respectively. Coverslips were mounted with ProLong glass antifade mounting medium (Invitrogen), then imaged with a Zeiss LSM880 confocal microscope using a 63× objective lens. Cells and filopodia were segmented using FIJI/ImageJ[49]. Individual filopodia were segmented using the FiloQuant FIJI plugin[50]. Cells were segmented by Voronoi tessellation using Hoechst 33342 stained nuclei as seed points. The segmented images were quantified using the scikit-image Python package. The following geometric and spatial parameters of the filopodia were quantified: (1) the branch length of each filopodial segment, (2) cumulative area of each segment, (3) eccentricity, defined as the […], and (4) the number of filopodial segments per unit exposed cell membrane. Further data handling and plotting were done using the tidyverse R package. At least 200 cells were analyzed for each condition.

| Compound | EC50 [1] | Emax ([1]; 3 h, read-out: efficacy, HTRF validation assay) | filopodia area [2] | filopodia length [2] | filopodia shape (eccentricity) [2] | number of filopodia per cell [2] |
| --- | --- | --- | --- | --- | --- | --- |
| Cc1cccc(NC(=O)c2c(NC(=O)C(F)(F)F)sc3c2CCCCC3)c1 [NCGC00098561] | 7.94 µM | 84% | – | – | – | – |
| CCN1CCN(c2ncc3c(n2)CCN(Cc2cc(Br)cs2)C3)CC1 [NCGC00131308] | – | – | significantly decreased | significantly decreased | reduced eccentricity | significantly decreased |
